Source: ChEMBL document CHEMBL4033771, “Development of Potent Myostatin Inhibitory Peptides through Hydrophobic Residue-Directed Structural Modification” (ACS Med Chem Lett, 2017)
Calls of active or inactive are those of the source. No cut-off for these calls is given here. Where a SMILES comes first, the peptide text is derived from it. The star is where a group is joined. Acetyl(2-naphthyloxy) = O=C(COc1ccc2ccccc2c1)*

Legend:
Mus musculus [1] = assay: Increase in tibialis anterior muscle weight in caveolin 3-deficient limb gridle muscular destrophy 1C mouse model at 20 nmol, im after 28 days relative to control; assay type: functional
Mus musculus [2] = assay: Increase in tibialis anterior muscle weight in wild type mouse at 20 nmol, im after 28 days relative to control; assay type: functional
Mus musculus [3] = assay: Increase in tibialis anterior muscle weight in mdx mouse at 0.75 mM, im administered on day 0 and 14 measured on day 42 relative to control; assay type: functional
Mus musculus [4] = assay: Increase in gastrocnemius muscle weight in wild type ICR mouse at 0.75 mM, im administered on day 0 and 14 measured on day 42 relative to control; assay type: functional
Mus musculus [5] = assay: Increase in gastrocnemius muscle fiber size in mdx mouse at 0.75 mM, im administered on day 0 and 14 measured on day 42 by Hematoxylin and Eosin staining based assay; assay type: functional, organism-based
Mus musculus [6] = assay: Increase in tibialis anterior muscle weight in wild type ICR mouse at 0.75 mM, im administered on day 0 and 14 measured on day 42 relative to control; assay type: functional

| Structure (SMILES) | Activity (Mus musculus [1]) | Activity (Mus musculus [2]) | Activity (Mus musculus [3]) | Activity (Mus musculus [4]) | Activity (Mus musculus [5]) | Activity (Mus musculus [6]) |
| --- | --- | --- | --- | --- | --- | --- |
| CC[C@H](C)[C@H](NC(=O)[C@H](C)NC(=O)[C@H](CCC(=O)O)NC(=O)[C@@H](NC(=O)[C@H](CCCNC(=N)N)NC(=O)[C@H](CO)NC(=O)[C@H](Cc1ccc(O)cc1)NC(=O)[C@H](CCCNC(=N)N)NC(=O)[C@@H](NC(=O)[C@H](CC(N)=O)NC(=O)[C@H](CCC(N)=O)NC(=O)[C@H](CCCNC(=N)N)NC(=O)[C@H](Cc1c[nH]c2ccccc12)NC(=O)[C@H](C)NC(=O)[C@@H](N)CS)[C@@H](C)O)[C@@H](C)CC)C(=O)N[C@@H](CCCCN)C(=O)N[C@H](C(=O)N[C@@H](CCC(N)=O)C(=O)N[C@H](C(=O)N[C@@H](CC(C)C)C(=O)N[C@@H](CO)C(=O)N[C@@H](CCCCN)C(=O)N[C@@H](CC(C)C)C(=O)N[C@@H](CCCNC(=N)N)C(=O)N[C@@H](CC(C)C)C(=O)N[C@@H](CCC(=O)O)C(=O)N[C@H](C(=O)N[C@@H](C)C(=O)N1CCC[C@H]1C(N)=O)[C@@H](C)O)[C@@H](C)CC)[C@@H](C)CC (H-CAWRQNTRYSRIEAIKIQILSKLRLETAP-NH2) | 20.6% | 10.6% | – | – | – | – |
| CC[C@H](C)[C@H](NC(=O)[C@H](CCCNC(=N)N)NC(=O)[C@H](CO)NC(=O)[C@H](Cc1ccc(O)cc1)NC(=O)[C@H](CCCNC(=N)N)NC(=O)[C@@H](NC(=O)[C@H](CC(N)=O)NC(=O)[C@H](CCC(N)=O)NC(=O)[C@H](CCCNC(=N)N)NC(=O)COc1ccc2ccccc2c1)[C@@H](C)O)C(=O)N[C@@H](CCC(=O)O)C(=O)N[C@@H](Cc1c[nH]c2ccccc12)C(=O)N[C@H](C(=O)N[C@@H](CCCCN)C(=O)N[C@H](C(=O)N[C@@H](CCC(N)=O)C(=O)N[C@H](C(=O)N[C@H](C(=O)N[C@@H](CO)C(=O)N[C@@H](CCCCN)C(=O)N[C@@H](CC(C)C)C(=O)N[C@@H](CCCNC(=N)N)C(=O)N[C@@H](CC(C)C)C(N)=O)[C@@H](C)CC)[C@@H](C)CC)[C@@H](C)CC)[C@@H](C)CC ({Acetyl(2-naphthyloxy)}-RQNTRYSRIEWIKIQIISKLRL-NH2) | – | – | 10 - 19% | 11 - 35% | Active | 10 - 34% |
